# From patent US9974773B2, “Stabilized oxymetazoline formulations and their uses” (Allergan, Inc., priority 2014, dated 2018)
# “And” between values parts separate entries of the source, which are not always exact repeats. Identical values can stand only once. Counter-ions that a name gives are not always drawn. Like-named read-outs stand apart in the source and are kept apart here.
# Columns and labels:
# [1] = Plasma oxymetazoline pharmacokinetics after dermal administration; type: in vivo; settings: human, topical or ocular, repeated dermal administration, once-daily or twice-daily, read-out: effective half-life (mean), range across groups
# Method: Blood samples were drawn on days 1 and 28 at predose, 2, 4, 6, 8, 10, and 12 hours after the morning dose throughout the study. Additional trough samples were collected on days 2, 14, and 29. The final pharmacokinetic sample was collected on day 35 after all assessments were completed. Plasma was analyzed for oxymetazoline concentrations using a validated liquid chromatography-tandem mass spectrometry method with a lower limit of quantification of 10 pg/mL.
# Noncompartmental analysis was performed to determine the maximum observed plasma concentration (Cmax), corresponding time to reach maximum observed plasma concentration (Tmax), area under the plasma concentration-time curve from time 0 to time t (AUC0-t), accumulation ratio (R0), and effective half-life (Teff) of oxymetazoline in plasma. These parameters were calculated, whenever possible. […]
# At the selected timepoints, approximately 6 mL of blood was collected into prelabeled K2EDTA lavender top blood collection tubes and gently inverted at least 10 times to ensure adequate mixing of blood and anticoagulant. […] A minimum of 1.0 mL of the harvested plasma was transferred into 2 prelabeled cryovials and stored at −20° C. or below until analyzed. The samples were analyzed using a validated high performance liquid chromatography-tandem mass spectrometry (LC-MS/MS) method with a lower limit of quantitation (LLOQ) of 10 pg/mL. […]
# [2] = system: patients with moderate to severe facial erythema associated with rosacea; assay: Facial dermal tolerability assessment; type: in vivo, human
# Method: Facial dermal tolerability assessment included the investigator's assessments (dryness and scaling of the treatment area) and the patient's assessments (stinging/burning and pruritus [itching] of skin in the application area) as described below:
# Facial dermal tolerability assessment were evaluated by investigators and patients on days 1 (pre-dose, hours 1, 2, 4, 6, 8, 10, and 12), 2 (predose), 14 (predose, hours 1, 2, 4, 6, 8, 10, and 12), 28 (pre-dose, hours 1, 2, 4, 6, 8, 10, and 12), 35, and 56. Investigator's assessments included dryness and scaling and patient's assessment included stinging/burning, and pruritus; each had 4-point scales: 0=none, 1=mild, 2=moderate, 3=severe.
# The number and percent of patients with at least a 1 severity increase (worsening) from baseline for 1 or more visits was generated by treatment group for day 1, day 14, day 28, and from day 1 through day 28. Raw values were summarized using shift tables and frequency distributions by treatment group. In addition, analyses of raw values and change from baseline at post-baseline timepoints and visits were performed using descriptive statistics. Baseline was the pre-dose assessment on day 1.
# [3] = system: patients with moderate to severe facial erythema associated with rosacea; type: in vivo; settings: for Discontinued: Adverse Event: mITT
# Method: An adverse event could therefore be any unfavorable and unintended sign (including an abnormal laboratory finding), symptom, or disease temporally associated with the use of a medicinal (investigational) product, whether or not related to the medicinal (investigational) product. In addition, during the screening period, adverse events were assessed regardless of the administration of a pharmaceutical product.
# A clinical determination was made of the intensity of an adverse event. The severity assessment for a clinical adverse event was completed using the following definitions as guidelines:
# A determination was made of the relationship (if any) between an adverse event and the study drug or study procedure, as applicable. A causal relationship was present if a determination was made that there was a reasonable possibility that the adverse event may have been caused by the drug or study procedure.
# Adverse events were coded using preferred terms and primary System Organ Class (SOC) from the Medical Dictionary for Regulatory Activities (MedDRA), version 15.1. Adverse events were collected both for the screening/baseline period (which were referred to as pretreatment adverse events [PTAEs]) and for the study period after treatment was initiated (which were referred to as postbaseline adverse events; ie, adverse events with start date from study day 1 through study exit). A treatment emergent adverse event (TEAE) was defined a postbaseline adverse event where there was no PTAE of the same MedDRA preferred term or the maximum severity during the postbaseline period was more severe than the maximal severity of any PTAE of the same MedDRA preferred term.
# For each preferred term, the incidence of TEAEs was presented and summarized on a per-patient basis as follows: • by preferred term in descending order of incidence rate • by primary SOC in alphabetical order, and preferred term • by primary SOC in alphabetical order, preferred term, and severity (maximum severity)
# The maximum severity of a TEAE experienced by a patient was determined by the most severe rating recorded on the eCRF for the patient's given TEAE. The incidence of TEAEs was provided for all TEAEs regardless of causality and for treatment-related TEAEs.
# [4] = all oxymetazoline-treated patients
smiles,measurement,setting,value
"Cc1cc(C(C)(C)C)c(O)c(C)c1CC1=NCCN1 [Oxy, oxymetazoline hydrochloride]",half-life,[1],18 to 28 h
same,patients with worsening of stinging/burning at the application site,"[2]; once-daily, day 1",12.8%
same,patients with worsening of stinging/burning at the application site,"[2]; once-daily, day 14",12.0%
same,patients with worsening of stinging/burning at the application site,"[2]; once-daily, day 28",6.0%
same,patients with worsening of stinging/burning at the application site,"[2]; twice-daily, day 1",10.4%
same,patients with worsening of stinging/burning at the application site,"[2]; twice-daily, day 14",8.9%
same,patients with worsening of stinging/burning at the application site,"[2]; twice-daily, day 28",1.5%
same,Discontinued: Adverse Event,[3]; BID,6 (4.4) Number (%) of Patients
same,Discontinued: Adverse Event,[3]; QD,2 (1.5) Number (%) of Patients
same,patients who discontinued due to treatment-related application site adverse events,[3]; all Oxy-treated patients,Seven and 7 patients
same,patients with application site acne (TEAE),[3]; all Oxy-treated patients,1.50%
same,patients with contact dermatitis (TEAE),[3]; all Oxy-treated patients,2.6%
same,patients with severe treatment-related application site events,"[3]; all Oxy-treated patients, 7 severe events",3 patients
same,patients who discontinued the study due to TEAEs,[3]; [4],8 patients
same,patients with headache (TEAE),[3]; [4],4.9%
same,patients with treatment-related application site adverse events,[3]; [4],28 patients
same,patients with TEAEs,[3]; once-daily dosing,33.8%
same,patients with adverse events during the posttreatment period,[3]; once-daily dosing,8.3%
same,patients with adverse events during the treatment period,[3]; once-daily dosing,28.6%
same,patients with treatment-related TEAEs,[3]; once-daily dosing,9.8%
same,patients with discontinuation from the study due to adverse events,[3]; once-daily group,1.5%
same,patients who discontinued the study,[3]; once-daily treatment groups,3.0%
same,patients with TEAEs,[3]; twice-daily dosing,32.6%
same,patients with adverse events during the posttreatment period,[3]; twice-daily dosing,7.4%
same,patients with adverse events during the treatment period,[3]; twice-daily dosing,26.7%
same,patients with treatment-related TEAEs,[3]; twice-daily dosing,12.6%
same,patients who discontinued the study due to adverse events,[3]; twice-daily group,4.4%
same,patients who discontinued the study,[3]; twice-daily treatment groups,6.7%
